Results from patent US20190151307A1 (priority 2017, published 2019).

Columns and labels:
[1] = peripheral blood mononuclear cells (PBMC) isolated from patients; cited from earlier work
[2] = clinical; assay type: in vivo, human; conditions: single dose BIC 75 mg, fed, RIF 600 mg
Procedure: This was a Phase 1, open-label, multiple-dose, multiple-cohort, adaptive design study in healthy adult subjects.
The duration of dosing was 9 days (with a 3-day washout between the first and second doses of study treatment). The study duration (not including screening) was approximately 21 days. The study had n=15 subjects.
In addition, the following multiple-dose plasma PK parameters of GS-9883 were calculated, as applicable: Ctau, Cmax, Clast, AUCtau, Tmax, Tlast, t1/2, and CL/F.
Serial blood samples for intensive PK sampling were collected at the following time points relative to the morning dose of study drug(s) administered: 0 (pre-dose) and 0.5, 1, 1.5, 2, 3, 4, 6, 8, 10, 12, 16, 24, 36, 48, 72, and 96 hours post-dose on Days 1 and 15. Daily pre-dose PK sampling was collected at days 10 and 14.
The ANOVA model included treatment as a fixed effect and subject as a random effect.

[3] = intracellular TFV-DP with TDF; cited from earlier work
[4] = tested on: HIV; conditions: cited from earlier work
[5] = Phase 1 study: steady-state plasma PK of TAF and TFV after B/F/TAF BID with rifampin vs B/F/TAF QD alone; assay type: in vivo, human; conditions: BID TAF administration (B/F/TAF BID+RIF), compared to prior PK results of TDF-containing regimens, FIG. 2
Procedure: This study evaluated the steady state pharmacokinetics of TAF, TAF metabolite TFV, and emtricitabine (FTC) following coadministration of bictegravir/emtricitabine/tenofovir alafenamide (B/F/TAF) fixed dose combination (FDC) twice daily with rifampin 600 mg once daily compared to those of B/F/TAF FDC once daily administered alone.
In this Phase 1, open-label, parallel multiple dose study, healthy volunteers were assigned to one of two cohorts (cohort 1 (n=26) or cohort 2 (n=26)) and received study treatments beginning on day 1 and continuing for 28 days (cohort 1) or 35 days (cohort 2).
The duration of the study was approximately 57 days for cohort 1 and approximately 44 days for cohort 2. […]
Pharmacokinetic assessments of plasma PK and PBMC PK were evaluated. […] PK parameters of TFV-DP and FTC-TP in PBMCs were calculated as applicable and included AUCtau, Ctrough, Cmax, accumulation ratios, and t1/2 with and without RIF. […]
Plasma concentrations of TAF and TFV were determined and pharmacokinetics were evaluated as applicable.
Plasma concentrations were determined using validated liquid chromatography-tandem mass spectrometry (LC/MS/MS) assays. Intracellular PBMC TFV-DP concentrations were determined via a validated LC/MS/MS assay combined with PBMC cell counting via a DNA quantitation procedure. […]

C[C@@H](Cn1cnc2c(N)ncnc21)OCP(=O)(O)OP(=O)(O)OP(=O)(O)O [TFV-DP]
intracellular half-life [1]: 150 h

O=C(NCc1c(F)cc(F)cc1F)c1cn2c(c(O)c1=O)C(=O)N1[C@H]3CC[C@H](C3)O[C@@H]1C2 [BIC]
half-life ([2]; human, in vivo, BIC t1/2, plasma, median per text): ~18.1 h
BIC % AUCexp, Mean (% CV) ([2]; plasma): 3.1%
BIC CL/F, Mean (% CV) ([2]; plasma): 545.1 mL/h
BIC Clast, Mean (% CV) ([2]; plasma): 192.7 ng/mL
BIC Tlast ([2]; plasma): 95.93 h

CC(C)OC(=O)OCOP(=O)(CO[C@H](C)Cn1cnc2c(N)ncnc21)OCOC(=O)OC(C)C [TDF, 9-[(R)-2-[[bis[[(isopropoxycarbonyl)oxy]methoxy]phosphinyl]methoxy]propyl]adenine]
historical steady-state TFV-DP threshold effectiveness concentration [3]: 85-222 fmol/10^6 cells

CC(C)OC(=O)[C@H](C)N[P@](=O)(CO[C@H](C)Cn1cnc2c(N)ncnc21)Oc1ccccc1 [TAF, 9-[(R)-2-[[(S)-[[(S)-1-(isopropoxycarbonyl)ethyl]amino]phenoxyphosphinyl]-methoxy]propyl]adenine]
enhancement in anti-HIV activity in cell culture of TAF over TFV [4]: 600 fold
total overall systemic TFV plasma exposure over 24 hours vs TDF-containing regimens [5]: markedly lower
